# Measurements from US9226916B2, “Pyrrolidine derivatives” (HOFFMANN-LA ROCHE INC., priority 2009, dated 2016).
# Read-outs that look alike come from different tables or passages of the source.
# Biological target: T1, recombinant human NK3 receptor (Homo sapiens, UniProt P29371)
# T1 construct: expressed in transfected cells; host or cells: HEK293 cells, transient expression; membranes
# T1 sequence (P29371 1-465): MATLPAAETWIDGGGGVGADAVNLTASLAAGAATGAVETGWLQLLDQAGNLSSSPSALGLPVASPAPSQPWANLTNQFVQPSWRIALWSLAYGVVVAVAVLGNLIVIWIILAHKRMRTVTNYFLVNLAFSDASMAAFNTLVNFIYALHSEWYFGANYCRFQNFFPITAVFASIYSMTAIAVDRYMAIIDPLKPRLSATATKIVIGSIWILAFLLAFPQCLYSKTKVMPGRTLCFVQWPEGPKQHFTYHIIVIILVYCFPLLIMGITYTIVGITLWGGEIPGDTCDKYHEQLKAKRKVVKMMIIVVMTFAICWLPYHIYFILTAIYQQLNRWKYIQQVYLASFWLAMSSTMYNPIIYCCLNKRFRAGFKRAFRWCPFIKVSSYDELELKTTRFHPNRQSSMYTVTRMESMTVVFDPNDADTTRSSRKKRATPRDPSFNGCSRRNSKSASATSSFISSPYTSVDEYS
# Assay: [3H]SR142801 competition binding assay
# [1] = hNK-3 receptor affinity, membranes from HEK293 cells transiently expressing recombinant human NK3 receptor, [3H]SR142801, Cheng-Prussoff, read-out: Data Ki
Ki [1] [nM],SMILES,Ki [nM]
–,"CN(C(=O)O[C@H]1CC[C@H](C(F)(F)F)CC1)[C@@H]1CN(C(=O)C2CCN(c3ccc(C(=O)NC(C)(C)C)cn3)CC2)C[C@H]1c1ccc(Cl)cc1 (racemic) [Example 121, rac-[(3S,4R)-1-(5′-tert-Butylcarbamoyl-3,4,5,6-tetrahydro-2H-[1,2′]bipyridinyl-4-carbonyl)-4-(4-chloro-phenyl)-pyrrolidin-3-yl]-methyl-carbamic acid 4-trifluoromethyl-cyclohexyl ester]",6.6
–,"CN(C(=O)OCCCC(F)(F)F)[C@@H]1CN(C(=O)C2CCN(c3ccc(C(=O)NC(C)(C)C)cn3)CC2)C[C@H]1c1ccc(Cl)cc1 (racemic) [Example 124, rac-[(3S,4R)-1-(5′-tert-Butylcarbamoyl-3,4,5,6-tetrahydro-2H-[1,2′]bipyridinyl-4-carbonyl)-4-(4-chloro-phenyl)-pyrrolidin-3-yl]-methyl-carbamic acid 4,4,4-trifluoro-butyl ester]",40.2
–,"CN(C(=O)OCCC(F)(F)F)[C@H]1CN(C(=O)C2CCN(C(=O)C3(C)CC3)CC2)C[C@@H]1c1ccc(Cl)c(Cl)c1 (single isomer, unassigned) [Example 29]",14.9
–,"CN(C(=O)Oc1ccc(F)cc1)[C@H]1CN(C(=O)[C@H]2CC[C@H](O)CC2)C[C@@H]1c1ccc(Cl)c(Cl)c1 (stereo in doubt) [Example 45, [(3R,4S)-4-(3,4-Dichloro-phenyl)-1-(trans-4-hydroxy-cyclohexanecarbonyl)-pyrrolidin-3-yl]-methyl-carbamic acid 4-fluoro-phenyl ester]",3.2
26.4,"CN(C(=O)OCCC1CC1)[C@H]1CN(C(=O)C2CCN(C(=O)C3(C)CC3)CC2)C[C@@H]1c1ccc(Cl)cc1 (stereo in doubt) [Example 54, rac-{(3R,4S)-4-(4-Chloro-phenyl)-1-[1-(1-methyl-cyclopropanecarbonyl)-piperidine-4-carbonyl]-pyrrolidin-3-yl}-methyl-carbamic acid 2-cyclopropyl-ethyl ester]",–
–,"CN(C(=O)Oc1ccc(F)cc1)[C@@H]1CN(C(=O)C2CCN(C(=O)C3(C)CC3)CC2)C[C@@H]1c1ccc(Cl)c(Cl)c1 (stereo in doubt) [Example 62, {(3S,4S)-4-(3,4-Dichloro-phenyl)-1-[1-(1-methyl-cyclopropanecarbonyl)-piperidine-4-carbonyl]-pyrrolidin-3-yl}-methyl-carbamic acid 4-fluoro-phenyl ester]",31.4
15.2,"CN(C(=O)OCCC1CC1)[C@@H]1CN(C(=O)C2CCN(C(=O)C3(C)CC3)CC2)C[C@H]1c1ccc(Cl)cc1 (stereo in doubt) [Example 64, {(3S,4R)-4-(4-Chloro-phenyl)-1-[1-(1-methyl-cyclopropanecarbonyl)-piperidine-4-carbonyl]-pyrrolidin-3-yl}-methyl-carbamic acid 2-cyclopropyl-ethyl ester]",–
–,"CN(C(=O)OCCC(F)(F)F)[C@H]1CN(C(=O)C2CCN(C(=O)C3(C)CC3)CC2)C[C@@H]1c1ccc(Cl)c(Cl)c1 (stereo in doubt) [Example 86, {(3R,4S)-4-(3,4-dichloro-phenyl)-1-[1-(1-methyl-cyclopropanecarbonyl)-piperidine-4-carbonyl]-pyrrolidin-3-yl}-methyl-carbamic acid 3,3,3-trifluoro-propyl ester]",60.4
–,"CN(C(=O)OCCC(F)(F)F)[C@@H]1CN(C(=O)C2CCN(C(=O)C3(C)CC3)CC2)C[C@H]1c1ccc(Cl)c(Cl)c1 (stereo in doubt) [Example 87, {(3S,4R)-4-(3,4-Dichloro-phenyl)-1-[1-(1-methyl-cyclopropanecarbonyl)-piperidine-4-carbonyl]-pyrrolidin-3-yl}-methyl-carbamic acid 3,3,3-trifluoro-propyl ester]",9.2
–,"CN(C(=O)O[C@H]1CC[C@H](C(F)(F)F)CC1)[C@@H]1CN(C(=O)C2CCN(C3CCOCC3)CC2)CC1c1ccc(Cl)c(Cl)c1 (stereo in doubt) [Example 123, {(3S,4R)-4-(3,4-Dichloro-phenyl)-1-[1-(tetrahydro-pyran-4-yl)-piperidine-4-carbonyl]-pyrrolidin-3-yl}-methyl-carbamic acid 4-trifluoromethyl-cyclohexyl ester]",2.8
–,"CN(C(=O)Oc1ccc(F)cc1)[C@H]1CN(C(=O)C2CCN(C(=O)C3(C)CC3)CC2)C[C@@H]1c1ccc(Cl)c(Cl)c1 [Example 5, {(3R,4S)-4-(3,4-Dichloro-phenyl)-1-[1-(1-methyl-cyclopropanecarbonyl)-piperidine-4-carbonyl]-pyrrolidin-3-yl}-methyl-carbamic acid 4-fluoro-phenyl ester]",56.2
–,"CN(C(=O)Oc1ccc(F)cc1)[C@@H]1CN(C(=O)C2CCN(C(=O)C3(C)CC3)CC2)C[C@H]1c1ccc(Cl)c(Cl)c1 [Example 6, {(3S,4R)-4-(3,4-Dichloro-phenyl)-1-[1-(1-methyl-cyclopropanecarbonyl)-piperidine-4-carbonyl]-pyrrolidin-3-yl}-methyl-carbamic acid 4-fluoro-phenyl ester]",0.5
–,"Cc1ccc(OC(=O)N(C)[C@@H]2CN(C(=O)C3CCN(C(=O)C4(C)CC4)CC3)C[C@H]2c2ccc(Cl)c(Cl)c2)cc1 [Example 17, {(3S,4R)-4-(3,4-Dichloro-phenyl)-1-[1-(1-methyl-cyclopropanecarbonyl)-piperidine-4-carbonyl]-pyrrolidin-3-yl}-methyl-carbamic acid p-tolyl ester]",0.7
–,"CN(C(=O)Oc1ccc(Cl)cc1)[C@@H]1CN(C(=O)C2CCN(C(=O)C3(C)CC3)CC2)C[C@H]1c1ccc(Cl)c(Cl)c1 [Example 19, {(3S,4R)-4-(3,4-Dichloro-phenyl)-1-[1-(1-methyl-cyclopropanecarbonyl)-piperidine-4-carbonyl]-pyrrolidin-3-yl}-methyl-carbamic acid 4-chlorophenyl ester]",0.2
–,"COc1ccc(OC(=O)N(C)[C@H]2CN(C(=O)C3CCN(CC4CC4)CC3)C[C@@H]2c2ccc(Cl)c(Cl)c2)cc1 [Example 20, [(3R,4S)-1-(1-Cyclopropylmethyl-piperidine-4-carbonyl)-4-(3,4-dichloro-phenyl)-pyrrolidin-3-yl]-methyl-carbamic acid 4-methoxy-phenyl ester]",72.4
–,"COc1ccc(OC(=O)N(C)[C@@H]2CN(C(=O)C3CCN(CC4CC4)CC3)C[C@H]2c2ccc(Cl)c(Cl)c2)cc1 [Example 21, [(3S,4R)-1-(1-Cyclopropylmethyl-piperidine-4-carbonyl)-4-(3,4-dichloro-phenyl)-pyrrolidin-3-yl]-methyl-carbamic acid 4-methoxy-phenyl ester]",10.4
81.1,"CN(C(=O)OCCC1CC1)[C@H]1CN(C(=O)C2CCN(C(=O)C3(C)CC3)CC2)C[C@@H]1c1ccc(Cl)c(Cl)c1 [Example 35, {(3R,4S)-4-(3,4-Dichloro-phenyl)-1-[1-(1-methyl-cyclopropanecarbonyl)-piperidine-4-arbonyl]-pyrrolidin-3-yl}-methyl-carbamic acid 2-cyclopropyl-ethyl ester]",–
33,"CN(C(=O)OCCC1CC1)[C@@H]1CN(C(=O)C2CCN(C(=O)C3(C)CC3)CC2)C[C@H]1c1ccc(Cl)c(Cl)c1 [Example 36, {(3S,4R)-4-(3,4-Dichloro-phenyl)-1-[1-(1-methyl-cyclopropanecarbonyl)-piperidine-4-arbonyl]-pyrrolidin-3-yl}-methyl-carbamic acid 2-cyclopropyl-ethyl ester]",–
–,"CN(C(=O)Oc1ccc(F)cc1)[C@H]1CN(C(=O)C2CCN(C(=O)C3(C)CC3)CC2)C[C@@H]1c1ccc(Cl)cc1 [Example 38, {(3R,4S)-4-(4-Chloro-phenyl)-1-[1-(1-methyl-cyclopropanecarbonyl)-piperidine-4-carbonyl]-pyrrolidin-3-yl}-methyl-carbamic acid 4-fluoro-phenyl ester]",42
–,"CN(C(=O)Oc1ccc(F)cc1)[C@@H]1CN(C(=O)C2CCN(C(=O)C3(C)CC3)CC2)C[C@H]1c1ccc(Cl)cc1 [Example 39, {(3S,4R)-4-(4-Chloro-phenyl)-1-[1-(1-methyl-cyclopropanecarbonyl)-piperidine-4-carbonyl]-pyrrolidin-3-yl}-methyl-carbamic acid 4-fluoro-phenyl ester]",11
–,"CN(C(=O)Oc1ccc(F)cc1)[C@@H]1CN(C(=O)C2CCOCC2)C[C@H]1c1ccc(Cl)c(Cl)c1 [Example 51, [(3S,4R)-4-(3,4-Dichloro-phenyl)-1-(tetrahydro-pyran-4-carbonyl)-pyrrolidin-3-yl]-methyl-carbamic acid 4-fluoro-phenyl ester]",1.8
–,"CN(C(=O)Oc1ccc(F)cc1)[C@@H]1CN(C(=O)[C@H]2CC[C@@H](O)CC2)C[C@H]1c1ccc(Cl)c(Cl)c1 [Example 60, [(3S,4R)-4-(3,4-Dichloro-phenyl)-1-(cis-4-hydroxy-cyclohexanecarbonyl)-pyrrolidin-3-yl]-methyl-carbamic acid 4-fluoro-phenyl ester]",1.7
67,"CN(C(=O)OCCCC(F)(F)F)[C@H]1CN(C(=O)C2CCN(C(=O)C3(C)CC3)CC2)C[C@@H]1c1ccc(Cl)c(Cl)c1 [Example 81, {(3R,4S)-4-(3,4-Dichloro-phenyl)-1-[1-(1-methyl-cyclopropanecarbonyl)-piperidine-4-carbonyl]-pyrrolidin-3-yl}-methyl-carbamic acid 4,4,4-trifluoro-butyl ester]",–
